How the values were obtained:
Format in all cases: binding
[1] = biological target: T1, kinases (KINOMEscan panel) (Homo sapiens, UniProt O75747); details: NEW KINOMEscan
T1 sequence (O75747 1-1486): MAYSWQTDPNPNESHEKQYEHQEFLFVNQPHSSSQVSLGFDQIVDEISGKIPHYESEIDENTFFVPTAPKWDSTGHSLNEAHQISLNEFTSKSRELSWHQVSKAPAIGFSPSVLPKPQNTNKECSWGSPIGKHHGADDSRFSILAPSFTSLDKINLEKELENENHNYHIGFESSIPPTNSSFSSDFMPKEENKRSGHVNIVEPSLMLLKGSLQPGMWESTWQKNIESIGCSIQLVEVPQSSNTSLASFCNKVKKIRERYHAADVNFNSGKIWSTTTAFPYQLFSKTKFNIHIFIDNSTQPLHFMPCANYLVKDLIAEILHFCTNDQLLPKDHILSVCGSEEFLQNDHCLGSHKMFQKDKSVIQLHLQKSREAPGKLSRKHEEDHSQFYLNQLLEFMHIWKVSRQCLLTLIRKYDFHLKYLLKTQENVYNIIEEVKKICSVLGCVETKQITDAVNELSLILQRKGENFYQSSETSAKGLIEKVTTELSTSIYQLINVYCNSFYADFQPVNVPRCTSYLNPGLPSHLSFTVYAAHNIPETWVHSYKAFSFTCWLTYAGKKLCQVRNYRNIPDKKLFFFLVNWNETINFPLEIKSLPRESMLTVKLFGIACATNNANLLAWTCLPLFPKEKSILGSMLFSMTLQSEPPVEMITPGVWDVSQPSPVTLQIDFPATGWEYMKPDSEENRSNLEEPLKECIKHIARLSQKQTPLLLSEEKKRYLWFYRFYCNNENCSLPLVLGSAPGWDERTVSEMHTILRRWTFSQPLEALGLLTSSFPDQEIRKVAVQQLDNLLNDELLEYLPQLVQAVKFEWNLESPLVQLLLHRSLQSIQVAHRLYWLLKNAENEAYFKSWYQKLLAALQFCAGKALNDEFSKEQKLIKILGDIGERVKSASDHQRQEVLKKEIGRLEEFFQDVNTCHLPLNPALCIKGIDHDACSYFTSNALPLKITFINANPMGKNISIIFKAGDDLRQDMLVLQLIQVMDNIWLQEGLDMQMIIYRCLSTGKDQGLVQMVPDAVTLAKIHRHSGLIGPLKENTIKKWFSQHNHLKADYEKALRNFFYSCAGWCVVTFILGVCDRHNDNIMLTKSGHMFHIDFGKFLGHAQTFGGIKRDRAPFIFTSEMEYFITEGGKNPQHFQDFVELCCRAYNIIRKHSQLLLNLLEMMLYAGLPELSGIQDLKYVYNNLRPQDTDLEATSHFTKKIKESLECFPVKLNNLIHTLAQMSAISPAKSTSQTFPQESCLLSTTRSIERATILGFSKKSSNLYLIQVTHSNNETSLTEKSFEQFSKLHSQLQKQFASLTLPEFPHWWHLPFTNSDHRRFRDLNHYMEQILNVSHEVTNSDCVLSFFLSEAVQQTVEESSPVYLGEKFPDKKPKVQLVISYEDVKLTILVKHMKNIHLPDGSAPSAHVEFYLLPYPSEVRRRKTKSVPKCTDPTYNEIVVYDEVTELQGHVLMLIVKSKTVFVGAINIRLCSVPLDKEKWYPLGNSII

[2] = biological target: T2, kinases (KINOMEscan panel) (Homo sapiens, UniProt Q9UQB9); details: AURKC; NEW KINOMEscan
T2 sequence (Q9UQB9 1-309): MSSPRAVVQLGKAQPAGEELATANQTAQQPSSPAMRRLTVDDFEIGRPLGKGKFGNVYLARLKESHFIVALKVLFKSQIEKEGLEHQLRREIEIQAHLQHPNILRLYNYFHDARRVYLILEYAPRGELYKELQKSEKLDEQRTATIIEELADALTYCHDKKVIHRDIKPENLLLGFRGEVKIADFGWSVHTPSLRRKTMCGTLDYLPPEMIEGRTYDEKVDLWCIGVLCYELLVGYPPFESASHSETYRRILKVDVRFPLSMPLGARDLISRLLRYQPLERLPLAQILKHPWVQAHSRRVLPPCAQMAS

[3] = biological target: kinases (KINOMEscan panel) (Homo sapiens, UniProt Q5S007, G2019S); details: NEW KINOMEscan
Sequence of kinases (KINOMEscan panel) (Homo sapiens, UniProt Q5S007, G2019S) (Q5S007 whole entry G2019S): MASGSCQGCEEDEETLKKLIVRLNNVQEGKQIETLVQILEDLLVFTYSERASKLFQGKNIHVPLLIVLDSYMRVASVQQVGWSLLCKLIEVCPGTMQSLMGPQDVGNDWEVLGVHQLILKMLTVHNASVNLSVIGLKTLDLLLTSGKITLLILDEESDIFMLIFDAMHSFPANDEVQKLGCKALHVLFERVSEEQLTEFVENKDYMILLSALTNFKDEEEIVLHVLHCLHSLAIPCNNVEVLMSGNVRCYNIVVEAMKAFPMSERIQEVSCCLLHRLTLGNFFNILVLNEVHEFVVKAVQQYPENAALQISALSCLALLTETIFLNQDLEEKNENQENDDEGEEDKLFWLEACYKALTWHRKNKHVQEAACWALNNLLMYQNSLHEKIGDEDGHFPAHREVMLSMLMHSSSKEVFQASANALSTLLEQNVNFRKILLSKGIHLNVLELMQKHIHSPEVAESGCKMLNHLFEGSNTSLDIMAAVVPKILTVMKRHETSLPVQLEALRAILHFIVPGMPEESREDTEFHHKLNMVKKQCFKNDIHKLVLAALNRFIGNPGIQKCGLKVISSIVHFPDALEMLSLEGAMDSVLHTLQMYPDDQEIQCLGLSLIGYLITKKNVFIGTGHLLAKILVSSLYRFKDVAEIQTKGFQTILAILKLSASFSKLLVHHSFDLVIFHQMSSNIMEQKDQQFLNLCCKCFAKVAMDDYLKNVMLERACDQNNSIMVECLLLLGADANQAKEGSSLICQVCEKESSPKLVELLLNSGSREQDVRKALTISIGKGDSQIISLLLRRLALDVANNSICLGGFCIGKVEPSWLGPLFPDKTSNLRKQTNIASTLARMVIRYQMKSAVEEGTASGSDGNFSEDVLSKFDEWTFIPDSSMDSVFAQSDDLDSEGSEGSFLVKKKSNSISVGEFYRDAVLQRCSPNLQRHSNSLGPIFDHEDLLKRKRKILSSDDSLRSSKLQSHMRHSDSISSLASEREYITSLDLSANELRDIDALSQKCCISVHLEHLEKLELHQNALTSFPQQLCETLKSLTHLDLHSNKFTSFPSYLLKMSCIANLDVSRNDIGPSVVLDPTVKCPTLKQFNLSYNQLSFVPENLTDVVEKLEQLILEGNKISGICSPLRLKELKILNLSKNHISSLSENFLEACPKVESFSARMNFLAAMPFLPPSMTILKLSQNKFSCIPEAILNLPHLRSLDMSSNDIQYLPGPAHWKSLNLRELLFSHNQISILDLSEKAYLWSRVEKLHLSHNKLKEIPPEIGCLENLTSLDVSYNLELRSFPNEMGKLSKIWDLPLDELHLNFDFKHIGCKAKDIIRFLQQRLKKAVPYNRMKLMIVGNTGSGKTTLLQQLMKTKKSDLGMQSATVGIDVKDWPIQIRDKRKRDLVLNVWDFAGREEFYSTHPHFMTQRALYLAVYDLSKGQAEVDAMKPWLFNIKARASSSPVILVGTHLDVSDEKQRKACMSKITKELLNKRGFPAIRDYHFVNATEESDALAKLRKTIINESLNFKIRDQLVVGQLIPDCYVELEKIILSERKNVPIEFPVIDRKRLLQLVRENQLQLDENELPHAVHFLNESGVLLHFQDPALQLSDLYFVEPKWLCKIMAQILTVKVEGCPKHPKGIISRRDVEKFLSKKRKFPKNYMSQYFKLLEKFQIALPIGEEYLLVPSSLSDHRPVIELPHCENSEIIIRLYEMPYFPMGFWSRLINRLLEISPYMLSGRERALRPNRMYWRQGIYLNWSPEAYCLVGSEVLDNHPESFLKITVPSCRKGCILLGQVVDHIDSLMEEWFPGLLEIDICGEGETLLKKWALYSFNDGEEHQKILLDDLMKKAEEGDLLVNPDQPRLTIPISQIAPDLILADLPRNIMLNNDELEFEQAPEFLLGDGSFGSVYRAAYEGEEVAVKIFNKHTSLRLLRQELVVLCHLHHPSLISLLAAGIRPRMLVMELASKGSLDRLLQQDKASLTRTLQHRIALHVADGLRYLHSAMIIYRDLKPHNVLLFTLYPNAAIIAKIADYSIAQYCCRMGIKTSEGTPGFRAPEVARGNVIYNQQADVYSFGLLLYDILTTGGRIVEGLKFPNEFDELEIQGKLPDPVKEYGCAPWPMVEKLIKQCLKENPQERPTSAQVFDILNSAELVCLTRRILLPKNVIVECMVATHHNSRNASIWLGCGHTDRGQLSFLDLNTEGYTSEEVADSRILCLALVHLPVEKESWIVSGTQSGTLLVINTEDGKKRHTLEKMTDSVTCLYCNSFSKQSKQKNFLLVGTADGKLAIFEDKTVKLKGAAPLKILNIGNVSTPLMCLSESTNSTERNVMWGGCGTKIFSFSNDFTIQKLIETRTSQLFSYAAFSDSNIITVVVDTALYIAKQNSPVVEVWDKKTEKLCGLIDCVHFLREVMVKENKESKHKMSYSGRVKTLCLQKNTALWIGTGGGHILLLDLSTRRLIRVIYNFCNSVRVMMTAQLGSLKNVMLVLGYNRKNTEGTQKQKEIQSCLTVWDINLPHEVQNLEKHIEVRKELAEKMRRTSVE

[4] = biological target: T3, kinases (KINOMEscan panel) (Homo sapiens, UniProt P51813); details: BMX; NEW KINOMEscan
T3 sequence (P51813 1-675): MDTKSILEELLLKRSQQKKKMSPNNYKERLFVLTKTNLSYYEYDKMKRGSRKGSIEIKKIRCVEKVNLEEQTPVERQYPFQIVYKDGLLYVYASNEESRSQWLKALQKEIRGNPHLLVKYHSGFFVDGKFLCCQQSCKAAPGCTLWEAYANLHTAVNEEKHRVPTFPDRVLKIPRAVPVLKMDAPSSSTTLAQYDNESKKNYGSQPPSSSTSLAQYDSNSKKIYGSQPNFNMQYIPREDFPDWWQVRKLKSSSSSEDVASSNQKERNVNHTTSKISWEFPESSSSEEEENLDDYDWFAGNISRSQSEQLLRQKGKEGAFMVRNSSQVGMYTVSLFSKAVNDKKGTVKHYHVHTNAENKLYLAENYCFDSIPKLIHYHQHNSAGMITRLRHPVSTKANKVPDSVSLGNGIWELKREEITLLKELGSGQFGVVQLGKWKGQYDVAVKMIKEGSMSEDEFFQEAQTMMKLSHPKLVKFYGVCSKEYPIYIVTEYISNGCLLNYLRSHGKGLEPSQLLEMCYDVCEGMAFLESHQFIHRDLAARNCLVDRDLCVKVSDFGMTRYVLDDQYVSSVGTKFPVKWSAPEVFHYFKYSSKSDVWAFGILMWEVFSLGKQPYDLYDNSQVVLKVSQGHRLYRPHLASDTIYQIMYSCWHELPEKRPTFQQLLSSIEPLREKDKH

[5] = biological target: kinases (KINOMEscan panel) (Homo sapiens, UniProt Q9H0K1); details: kinase SIK2; NEW KINOMEscan
Sequence of kinases (KINOMEscan panel) (Homo sapiens, UniProt Q9H0K1) (Q9H0K1 whole entry): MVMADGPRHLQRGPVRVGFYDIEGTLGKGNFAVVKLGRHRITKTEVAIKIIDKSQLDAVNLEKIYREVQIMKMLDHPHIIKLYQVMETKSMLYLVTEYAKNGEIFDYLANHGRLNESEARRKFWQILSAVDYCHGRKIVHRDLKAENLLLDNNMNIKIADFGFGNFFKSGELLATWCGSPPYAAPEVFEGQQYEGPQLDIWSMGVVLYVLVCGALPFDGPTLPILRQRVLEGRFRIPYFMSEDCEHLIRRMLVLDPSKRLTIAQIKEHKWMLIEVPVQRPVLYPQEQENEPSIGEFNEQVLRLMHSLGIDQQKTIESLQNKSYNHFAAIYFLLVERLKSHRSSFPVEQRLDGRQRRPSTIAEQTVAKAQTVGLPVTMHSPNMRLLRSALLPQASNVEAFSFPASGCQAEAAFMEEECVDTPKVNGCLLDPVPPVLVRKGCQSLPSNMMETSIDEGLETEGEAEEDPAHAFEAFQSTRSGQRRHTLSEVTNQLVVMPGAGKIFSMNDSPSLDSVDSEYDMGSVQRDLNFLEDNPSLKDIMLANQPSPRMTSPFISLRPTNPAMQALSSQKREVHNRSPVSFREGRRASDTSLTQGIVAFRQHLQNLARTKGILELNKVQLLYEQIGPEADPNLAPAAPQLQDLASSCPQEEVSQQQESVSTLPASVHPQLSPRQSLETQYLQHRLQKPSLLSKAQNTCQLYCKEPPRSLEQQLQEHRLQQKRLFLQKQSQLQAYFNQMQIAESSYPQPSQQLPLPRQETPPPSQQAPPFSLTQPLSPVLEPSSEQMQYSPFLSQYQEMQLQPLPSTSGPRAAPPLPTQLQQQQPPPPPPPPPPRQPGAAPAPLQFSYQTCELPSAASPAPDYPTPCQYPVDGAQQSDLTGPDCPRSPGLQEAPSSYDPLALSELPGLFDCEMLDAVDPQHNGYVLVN

SMILES | KINOMEscan PIK3C2G [1] | KINOMEscan AURKC [2] | KINOMEscan LRRK2(G2019S) [3] | KINOMEscan BMX [4] | KINOMEscan SIK2 [5]
Cc1cccc(-c2nc(Nc3ccc4nn(C)cc4c3)c3ccccc3n2)n1 [NK167] | 0 | 0 | 39 | 0 | 0
Cc1cccc(-c2nc(N(C)c3ccc4ncsc4c3)c3ccccc3n2)n1 [NK-161] | 0 | 0 | 31 | 6 | 0

Source: publication PMC9851200, “Multiparameter phenotypic screening for endogenous TFEB and TFE3 translocation identifies novel chemical series modulating lysosome function” (Autophagy, 2022)
